Entries after “also recorded” stand apart in the source; their conditions may differ.
What was measured:
Mel 270 primary-UM cells = assay: CFSE cellular proliferation, Mel 270; format: cell-based, human; details: 96 hrs culture, 1 μM for the last 24 hrs
Procedure: Harvested cells were resuspended at a concentration of 1.0×10^6 cells/mL in warm PBS/1% FBS. Cells were labeled with […] (Invitrogen) for 5 minutes at 37° C. then quenched on cold growth media (final volume 20 mL) for 10 minutes, twice. Cultured unlabeled cells were used as controls.
To test the hypothesis that inhibition of paxillin will reduce cellular proliferation UM cell lines were labeled with carboxyfluorescein succunimidyl ester (CFSE), a cell tracking dye, and cultured for 96 hrs. A group of cells received treatment with compound (II-4) for the last 24 hours. Maximum CFSE fluorescence was controlled using labeled cells prior culture −0 hr. Negative control was established using unlabeled cells cultured in parallel. Histograms in FIG. 15D show 96 hrs cultured cells divided with a 1-log shift or reduction in CFSE intensity. […] Cell proliferation was not affected in the 92.1 cell line. […]
(§1) FIG. 15: The paxillin inhibitor Compound (II-4) selectively affects cellular proliferation of primary UM cells that become metastatic. […] Unlabeled cells were used to control fluorescence. […] B. Quantitation of experiment +/−SD including primary UM that becomes metastatic (Mel 270), metastatic (OMM 2.1) and primary (92.1) UM cells. *P=0.0007 and **P=0.0005. […] Quantitation of VLA-4 protein levels +/−SD from n=3. […]

VLA-4 = VLA-4 protein levels by flow cytometry in UM cells; format: cell-based, human; details: UM cells after treatment
Procedure: Harvested cells were washed and counted. 1.0×10^6 cells were labeled with the following cell surface antibodies: FITC anti-CD54 (ICAM-1, clone HA58, BioLegend), PE anti-CD102 (ICAM-2, clone CBR-IC2/2, BioLegend), PE-Cy7 anti-CD49d (VLA-4, clone 9F10, BioLegend), APC anti-CD106 (VCAM-1, clone STA, BioLegend), PerCP-Cy5.5 anti-CD166 (ALCAM, clone 3A6, BioLegend), Biotin anti-CD326 (EpCAM, clone 1B7, BD Biosciences) using manufacturer's conditions. Cells were incubated in antibody cocktail for 30 minutes on ice followed by two washes with PBS/2% FBS. Second-labeling step was performed using Brilliant Violet 421 Streptavidin (bv421-SA, BioLegend) for 30 minutes on ice followed by two washes as before. […]
Next, it was investigated if reduced numbers were a consequence of a reduction in UM cells proliferation. Cell cultures in the presence or absence of compound (II-4) were analyzed by follow cytometry for cytoskeletal fragmentation and proliferation. […]
as §1

paxillin = assay: Murine OIR model, Western blot of retinal homogenates; format: in vivo, mouse; details: daily ocular administration 0.5 mg/kg or 5 mg/kg, P17
Description: Topical delivery of compound (II-4) using an ocular ME was chosen for several reasons. First, intravitreal injection is technically challenging and, unlike intraocular delivery of proteins, is unnecessary for delivery of small molecules. […] The murine OIR model was used to examine the effect of compound (II-4) on the natural history of VEGF-induced proliferative retinopathy. Briefly, pups were exposed to 75% oxygen at post-natal day 7 (P7) for 5 days and then returned to normal oxygen at P12. Mice received daily ocular administration of either compound (II-4) (0.5 mg/kg or 5 mg/kg) or vehicle (ME) from P12 to P17. Eyes were enucleated at P17 and retinal whole-mounts stained for endothelial cells followed by quantification of avascular area and vascular tuft formation.
FIG. 22: Oxygen-Induced Retinopathy (OIR). (A:) P17 retinal whole-mounts were stained for endothelial cells. […] Data represent mean (±SD). N=8-14/group. […] (C): Quantitation of panel A neovascular area. (D): Quantitation of panel A avascular area. (E): Quantitation of panel B total paxillin.

SMILES: COc1cc(C2OC(=O)Nc3c2ccc2ccccc32)cc(OC)c1OC (stereo not drawn) [compound II-4]
- cell proliferation (CFSE) (Mel 270 primary-UM cells): caused a reduction in cell proliferation
- VLA-4 protein levels (VLA-4): does not affect VLA-4 protein
- total paxillin in retinal homogenates (paxillin): dose-dependent reduction; also recorded: reduced total paxillin protein
